The OligoGym collection
Bases are written 5' to 3'; sugars and linkages follow in the same order, as letters with counts (s phosphorothioate, o phosphodiester; PS: all linkages phosphorothioate). The collection does not say whether C is 5-methylated. l = locked nucleic acid (LNA); d = 2'-deoxy (DNA)

What follows are sequences tested against Tau (assay: rat primary cortical neurons, FLIPR, 25 uM ASO).

Sequence	calcium oscillation score
CCTTTTCTACTCTACTCT (sugars l3 d13 l2, PS)	63.3 % of control
CTTTTCTACTCTACTCTCAA (sugars l4 d14 l2, PS)	67.6 % of control
TGGCGGTGACTGCGA (sugars l3 d9 l3, PS)	107 % of control
AAAATATCCTTACCATCCTA (sugars l3 d14 l3, PS)	75.5 % of control
CTTTTCTTAAAGTTCAC (sugars l4 d9 l4, PS)	82.2 % of control
TATGTTTTTTAACTCCC (sugars l4 d11 l2, PS)	94.3 % of control
GTTGGATCAGAGGGTC (sugars l3 d10 l3, PS)	22.2 % of control
TAATCCTGTGCTTC (sugars l3 d8 l3, PS)	2.3 % of control
TCGCTTCCAGTCCCGT (sugars l3 d10 l3, PS)	110 % of control
CCAGGGACCCAATCTT (sugars l3 d10 l3, PS)	76 % of control
TTGCTTTTCCCAATTAT (sugars l4 d11 l2, PS)	54.5 % of control
CAGATATTCATTCCCTC (sugars l2 d12 l3, PS)	64.4 % of control
CCCCATTCAGATCTATC (sugars l2 d13 l2, PS)	98.8 % of control
CCTTACTTTCTACTCAATT (sugars l3 d14 l2, PS)	48.1 % of control
GGTTAGCCCTAAAGTCCCAG (sugars l3 d14 l3, PS)	37.3 % of control
CTCAACATTACCCTTAAATA (sugars l4 d14 l2, PS)	57.6 % of control
TTAACCAATTAACCGAACTG (sugars l3 d14 l3, PS)	122 % of control
AATAAGAAAGGAACGC (sugars l3 d10 l3, PS)	110 % of control
CAGGTTAAGTGATTAACCAA (sugars l3 d14 l3, PS)	17.4 % of control
ACATTCTATACTTCAG (sugars l4 d8 l4, PS)	71.4 % of control
CTTTATTTCCAAATTCACTT (sugars l3 d1 l1 d12 l3, PS)	29.8 % of control
ACAACAAACATCTAAACACC (sugars l3 d13 l4, PS)	84.5 % of control

Sequence	calcium oscillation score
GACACCTCGTCAGCTAGCGT (sugars l3 d14 l3, PS)	11.7 % of control
TTCATCTACTTTTCAGCT (sugars l4 d12 l2, PS)	47.2 % of control
CAACATTTGCACTCTCT (sugars l2 d11 l4, PS)	53 % of control
CGACTTGTACACGATC (sugars l3 d10 l3, PS)	48.9 % of control
AATCAATTCTCATTTCAACC (sugars l4 d13 l3, PS)	63.9 % of control
TCATTCAGCCAATCACA (sugars l3 d11 l3, PS)	45.6 % of control
TCATTTTTCTCAAGCTCC (sugars l2 d14 l2, PS)	55.8 % of control
ATGCTTACACACCACA (sugars l2 d10 l4, PS)	88.5 % of control
AGGTCAACTGGTTTGTAGAC (sugars l3 d14 l3, PS)	0 % of control
TAACTCTCCTTATCTGA (sugars l2 d11 l4, PS)	29.7 % of control
ACTTTATTTCCAAATTCACTTTTAC (sugars l1 d1 l2 d18 l3, PS)	23.6 % of control
ATAGTCACTCTGGTGA (sugars l3 d10 l3, PS)	85.7 % of control
TTTTTTATTCATAACTTTTC (sugars l4 d12 l4, PS)	63.8 % of control
AAGGTCAGCTTGTGGG (sugars l3 d10 l3, PS)	11.4 % of control
ATCTTAATTCATTTAATTCT (sugars l4 d12 l4, PS)	93.1 % of control
GACCCTTTTTCTTAAC (sugars l4 d10 l2, PS)	59.1 % of control
ACATCCTGCCATACCA (sugars l3 d11 l2, PS)	45 % of control
TGTTGCCTAATGAGCCACAC (sugars l3 d14 l3, PS)	54.2 % of control
CATCAACACCTTTTAATTCA (sugars l2 d14 l4, PS)	98.4 % of control
CTTTATTTCCAAATTCACT (sugars l5 d9 l2 d1 l2, PS)	108 % of control
ACTTTATTTCCAAATTCACTTTTAC (sugars l4 d16 l2 d1 l2, PS)	29.5 % of control
TAGCAGAGGAACGTGT (sugars l3 d10 l3, PS)	40.7 % of control

Sequence	calcium oscillation score
CTCCCTTTAATGCCAGGCCC (sugars l3 d14 l3, PS)	20.1 % of control
TGCACCCACTTTCCTAAT (sugars l4 d12 l2, PS)	56.2 % of control
GTCCTCACTTTACACATT (sugars l3 d13 l2, PS)	41 % of control
CACTCTCTGCATATATA (sugars l4 d10 l3, PS)	48 % of control
ACCCTTACACATAGCTTC (sugars l2 d13 l3, PS)	53.9 % of control
ACCATCCAAGTCAATGCCTG (sugars l3 d14 l3, PS)	4.03 % of control
GGCATGATTGTGGGCT (sugars l3 d10 l3, PS)	6.12 % of control
CATAAATGACTATACTTATT (sugars l3 d14 l3, PS)	94.7 % of control
CTTTGAGTTGAGGGAC (sugars l3 d10 l3, PS)	29.1 % of control
ACACCATCCAAGTCAAT (sugars l3 d10 l4, PS)	16.2 % of control
CCCATTCAGATCTATCC (sugars l2 d13 l2, PS)	102 % of control
CCACCTCCTGGTTTATGATG (sugars l3 d14 l3, PS)	19.4 % of control
CCTCTCCTTTAAGAAAA (sugars l4 d10 l3, PS)	74.9 % of control
ACTTTATTTCCAAATTCACTTTTAC (sugars lldldddddddddddddddddlldl, PS)	29.5 % of control
CTTCTAATTTAGTCACC (sugars l3 d10 l4, PS)	54.6 % of control
GGCGACTTGTACACGATCTC (sugars l3 d14 l3, PS)	46.6 % of control
CACCTCCTGGTTTATGATGG (sugars l3 d14 l3, PS)	0 % of control
CCAGCGTGATCTTCCATCAC (sugars l5 d11 l4, PS)	91.6 % of control
CTTTACCCATCTTAATTC (sugars l4 d11 l3, PS)	86.1 % of control
TGGATATAGTTAAGGC (sugars l4 d9 l3, PS)	107 % of control
CAATTTGGAAAGATGAAATT (sugars l3 d14 l3, PS)	3.89 % of control
TTGCTCAGGTCAACTG (sugars l3 d10 l3, PS)	42.9 % of control

Sequence	calcium oscillation score
TCTAGTTATACAGTTGGCCC (sugars l3 d14 l3, PS)	21.4 % of control
ATCCTTCTAAGTACAA (sugars l4 d8 l4, PS)	85.6 % of control
ACCTCTTAGTCATCTTCCC (sugars l2 d15 l2, PS)	67.9 % of control
TCAATTCTCATTTCAACCTT (sugars l2 d15 l3, PS)	70.7 % of control
TTATTAATTATCTGCA (sugars l3 d10 l3, PS)	58.7 % of control
ACTCTAAGTAGACCCTGGCC (sugars l3 d14 l3, PS)	4.76 % of control
ATCAGTCTTATCTCCCA (sugars l3 d12 l2, PS)	49.2 % of control
AACCACTCTTATTCTTTAA (sugars l4 d11 l4, PS)	77.1 % of control
TCCTAATCCTGTGCT (sugars l3 d9 l3, PS)	140 % of control
ATGTCGATGCTGCC (sugars l3 d8 l3, PS)	137 % of control
AGGTCACCTTGCTCAG (sugars l3 d10 l3, PS)	52.8 % of control
AATTAGTCACATACCA (sugars l4 d8 l4, PS)	85 % of control
GAACTTCTAGTTATACAGTT (sugars l3 d14 l3, PS)	26.2 % of control
CTTTACCCATCTTAATTCAT (sugars l3 d15 l2, PS)	82.1 % of control
CTAATTCCCAAATTCCTCA (sugars l2 d14 l3, PS)	62.1 % of control
TCGATGCTGCCGGT (sugars l3 d8 l3, PS)	13 % of control
TTATTTCCAAATTCACTTTT (sugars ldlllddddddddddlldll, PS)	70.3 % of control
GTTGCCTAATGAGCCACACT (sugars l3 d14 l3, PS)	59.8 % of control
TATTTACACTGTCCTTT (sugars l4 d9 l4, PS)	52.1 % of control
CCTCCTAGAACACAACA (sugars l3 d12 l2, PS)	57 % of control
TGGACCACCTTACCAC (sugars l3 d10 l3, PS)	48.1 % of control
CTTACACATAGCTTCT (sugars l4 d8 l4, PS)	47.1 % of control

Sequence	calcium oscillation score
ATAGTCACTCTGGTG (sugars l3 d9 l3, PS)	27.8 % of control
ATATTTAGTTTTCCCAC (sugars l2 d11 l4, PS)	42.4 % of control
AGAAATAAGTGGTAGT (sugars l3 d9 l4, PS)	101 % of control
TACAGTCATTTCATTAC (sugars l4 d9 l4, PS)	64.9 % of control
ACAATTCTCAGCACACC (sugars l2 d11 l4, PS)	48.8 % of control
TAGTAAACACCATCTC (sugars l4 d9 l3, PS)	77.2 % of control
AATAAGAAAGGAACGC (sugars l5 d6 l5, PS)	113 % of control
GATCTTAGGCTGGC (sugars l3 d8 l3, PS)	4.6 % of control
ATTAATTACACCCCTG (sugars l3 d9 l4, PS)	5.47 % of control
AACCATTAACTGCCTAT (sugars l4 d10 l3, PS)	53 % of control
TAATTCCCAAATTCCTCATA (sugars l2 d14 l4, PS)	53.9 % of control
CACCTCATTAAGATCAC (sugars l3 d10 l4, PS)	76.6 % of control
CCGCCTTTAGTGATTACAGG (sugars l3 d14 l3, PS)	4.03 % of control
TCTTCCTTTGTAATTCCT (sugars l3 d13 l2, PS)	57.9 % of control
GCGTGATCTTCCAT (sugars l3 d8 l3, PS)	182 % of control
CATGATTAATTACACCC (sugars l3 d11 l3, PS)	35.5 % of control
ACTAGCCCACCCATCAATTT (sugars l3 d14 l3, PS)	12.9 % of control
ATTTCCAAATTCACTTTTAC (sugars lllddldddddddddldlll, PS)	125 % of control
TTTGTAGACTATTTG (sugars l3 d9 l3, PS)	0 % of control
AGGTTAAGTGATTAACCAAT (sugars l3 d14 l3, PS)	115 % of control
